Calls of active or inactive are those of the source. The rule behind the calls is not given here.
Tests used:
[1] = Blockade of neuromuscular transmission activity in albino Sprague-Dawley rat hemidiaphragm assessed as inhibition of electrically-stimulated phrenic nerve contraction; format: functional, tissue-based, Diaphragm
[2] = species on record: Oryctolagus cuniculus; experiment: Antagonist activity at alpha adrenergic receptor in rabbit aortic strips assessed as decrease in of phenylephrine-induced contraction at 10^-4 M; format: functional
[3] = Antagonist activity at alpha adrenergic receptor in rabbit aortic strips assessed as decrease in of phenylephrine-induced contraction at 3 X 10^-4 M; format: functional, Oryctolagus cuniculus; parameters: scale not given: the % may be the effect or the level left
[4] = Antagonist activity at alpha adrenergic receptor in rabbit aortic strips assessed as inhibition of phenylephrine-induced contraction; format: functional, Oryctolagus cuniculus
[5] = system: Canis familiaris; experiment: Toxicity in dog at 0.5 to 4 mg/kg, iv; format: organism-based, Canis lupus familiaris; parameters: dose 0.5-4 mg/kg, route intravenous; details: in vivo
[6] = system: Canis familiaris; experiment: Cardiovascular effect in anesthetized normotensive iv dosed dog assessed as decrease in mean arterial pressure; format: functional, organism-based; details: Canis lupus familiaris; Artery
[7] = system: Canis familiaris; experiment: Cardiovascular effect in anesthetized normotensive iv dosed dog assessed as decrease in heart rate; format: functional, Canis lupus familiaris
[8] = system: Canis familiaris; experiment: Toxicity in iv dosed dog assessed as inhibition of respiration; format: organism-based, Canis lupus familiaris; details: in vivo
[9] = system: Canis familiaris; experiment: Cardiovascular effect in anesthetized normotensive dog assessed as decrease in mean arterial pressure at 2 mg/kg, iv upto 22 mins; format: functional, Canis lupus familiaris, Artery
[10] = system: Canis familiaris; experiment: Cardiovascular effect in anesthetized normotensive dog assessed as reduction in mean arterial pressure at 2 mg/kg, iv dosed twice with second dose being administered 2.5 hrs interval after the first dose; format: functional, Canis lupus familiaris, Artery
[11] = species on record: Rattus norvegicus; experiment: Blockade of neuromuscular transmission activity in albino Sprague-Dawley rat hemidiaphragm assessed as inhibition of electrically-stimulated phrenic nerve contraction at 1 to 30 X 10^-6 M; format: functional, tissue-based; details: Diaphragm
[12] = system: Canis familiaris; experiment: Cardiovascular effect in anesthetized normotensive dog assessed as rise in heart rate at 0.1 mg/kg, iv; format: functional, Canis lupus familiaris
[13] = system: Canis familiaris; experiment: Toxicity in dog at > 0.4 mg/kg, iv; format: organism-based, Canis lupus familiaris; parameters: dose 0.4 mg/kg, route intravenous; details: in vivo
[14] = system: Canis familiaris; experiment: Cardiovascular effect in anesthetized normotensive dog assessed as decrease in mean arterial pressure at 0.1 to 0.4 mg/kg, iv; format: functional, organism-based; details: Canis lupus familiaris, Artery
[15] = system: Canis familiaris; experiment: Toxicity in dog assessed as inhibition of respiration at > 0.4 mg/kg, iv; format: organism-based, Canis lupus familiaris; parameters: dose 0.4 mg/kg, route intravenous; details: in vivo
[16] = Protection of albino Sprague-Dawley rat hemidiaphragm from alpha-bungarotoxin blockade assessed as recovery of nerve-stimulated muscle contraction at 3 X 10^-5 M; format: functional, Muscle tissue
[17] = system: Canis familiaris; experiment: Cardiovascular effect in anesthetized normotensive dog assessed as fall in heart rate at 0.1 to 0.4 mg/kg, iv; format: functional, Canis lupus familiaris; details: dose mg/kg 0.1-0.4
[18] = Blockade of neuromuscular transmission activity in albino Sprague-Dawley rat hemidiaphragm assessed as inhibition of electrically-stimulated phrenic nerve contraction at 10^-5 M relative to control; format: functional, Diaphragm; parameters: scale not given: the % may be the effect or the level left
[19] = Blockade of neuromuscular transmission activity in albino Sprague-Dawley rat hemidiaphragm assessed as inhibition of electrically-stimulated phrenic nerve contraction at 10^-5 M relative to control in presence of Eserine; format: functional, Diaphragm; parameters: scale not given: the % may be the effect or the level left

Activity [2] | Structure (SMILES) | IC50 [1] [µM] | Activity [3] [%] | pKb [4] | Activity [5] | Activity [6] | Activity [7] [bpm] | Activity [8] | Activity [9] [mmHg] | Activity [10] [mmHg] | Activity [11] | Activity [12] [bpm] | Activity [13] | Activity [14] | Activity [15] | Kb ([4]; Oryctolagus cuniculus, read-out: pA2 (converted)) [µM] | Activity [16] [%] | Activity [17] [bpm] | Activity [18] [%] | Activity [19] [%]
– | COc1cc2c3cc1Oc1cc(ccc1O)C[C@@H]1c4c(cc(OC)c(O)c4Oc4ccc(cc4)C[C@@H]3N(C)CC2)CC[N+]1(C)C | 1.42 | – | – | – | – | – | – | – | – | – | – | – | – | – | – | – | – | – | –
Active | COc1cc2c3cc1Oc1c(O)c(OC)cc4c1[C@@H](Cc1ccc(O)c(c1)Oc1ccc(cc1)C[C@@H]3N(C)CC2)N(C)CC4 [OBAMEGINE] | – | 30 | 5.3 | Non-toxic | Dose-dependent effect | 20 | Non-toxic | 61 | 11 | inactive | – | – | – | – | – | – | – | – | –
– | COc1ccc(C[C@H]2c3cc(OC)c(OC)c(OC)c3CC[N+]2(C)C)cc1Oc1ccc(C[C@H]2c3cc(OC)c4c(c3CCN2C)OCO4)cc1.[Cl-] [THALISTYLINE] | 4.98 | – | – | – | – | – | – | – | – | – | 20 | Toxic | Active | Toxic | 0.468 | 65.8 | 20 | 24.7 | 63.8
